Measured values as given in patent EP0540185A1, “4'-(N-substituted-N-oxide)staurosporine derivatives” (SCHERING CORPORATION, priority 1991, dated 1993).

Experiments:
[1] = test system: Normal Human Epidermal Keratinocyte (NHEK) Cultures; assay: Inhibition of spontaneous and induced cornified envelope (CE) formation in NHEK cultures; type: cell-based; parameters: CE formation induced by high calcium-containing media: unit of the concentration uncertain; settings: for CE formation induced by high calcium-containing media: 1.6 mM Ca+2 media
Procedure: C. Inhidition of Spontaneous and Induced Cornified Envelope ("CE") Formation in Normal Human Epidermal Keratinocyte (NHEK) Cultures.
The data was collected in cultured NHEK cells which were grown in serum-free media to subconflurncy and then treated with DMSO (vehicle control) or various concentration of the compounds of this invention, etretinate (an antipsoriatic aromatic analog of retinoic acid) and staurosporine.
After 15 minutes, the NHEK cells were treated with DMSO (vehicle control), […] of 12-tetradecanoyl-phorbol-13-acetate ("TPA") to evaluate TPA-induced CE formation. In another experiment, the NHEK cells were refed media containing 0.15 mM Ca⁺² (control) or a high calcium-containing media, i.e., a 1.6 mM Ca⁺² media to induce CE formation by such a high calcium-containing media. After 48 hours, the cells so-treated were harvested and viable and total cells were counted. Cornified envelopes were assessed after resuspending cells pellets in buffer containing sodium dodecyl sulfate ("SDS") and dithiothreitol ("DTT"). CE formation induced by TPA or high calcium-containing media was expressed as CE/viable cells and each treatment group was compared to its appropriate control group.

[2] = biological target: Myosin light chain kinase (MLCK) (Homo sapiens, UniProt Q15746); assay: Myosin light chain kinase (MLCK) assay; type: biochemical; settings: MLCK substrate peptide, 10 nM calmodulin, 10 minutes
Chain of Myosin light chain kinase (MLCK) (Q15746 whole entry): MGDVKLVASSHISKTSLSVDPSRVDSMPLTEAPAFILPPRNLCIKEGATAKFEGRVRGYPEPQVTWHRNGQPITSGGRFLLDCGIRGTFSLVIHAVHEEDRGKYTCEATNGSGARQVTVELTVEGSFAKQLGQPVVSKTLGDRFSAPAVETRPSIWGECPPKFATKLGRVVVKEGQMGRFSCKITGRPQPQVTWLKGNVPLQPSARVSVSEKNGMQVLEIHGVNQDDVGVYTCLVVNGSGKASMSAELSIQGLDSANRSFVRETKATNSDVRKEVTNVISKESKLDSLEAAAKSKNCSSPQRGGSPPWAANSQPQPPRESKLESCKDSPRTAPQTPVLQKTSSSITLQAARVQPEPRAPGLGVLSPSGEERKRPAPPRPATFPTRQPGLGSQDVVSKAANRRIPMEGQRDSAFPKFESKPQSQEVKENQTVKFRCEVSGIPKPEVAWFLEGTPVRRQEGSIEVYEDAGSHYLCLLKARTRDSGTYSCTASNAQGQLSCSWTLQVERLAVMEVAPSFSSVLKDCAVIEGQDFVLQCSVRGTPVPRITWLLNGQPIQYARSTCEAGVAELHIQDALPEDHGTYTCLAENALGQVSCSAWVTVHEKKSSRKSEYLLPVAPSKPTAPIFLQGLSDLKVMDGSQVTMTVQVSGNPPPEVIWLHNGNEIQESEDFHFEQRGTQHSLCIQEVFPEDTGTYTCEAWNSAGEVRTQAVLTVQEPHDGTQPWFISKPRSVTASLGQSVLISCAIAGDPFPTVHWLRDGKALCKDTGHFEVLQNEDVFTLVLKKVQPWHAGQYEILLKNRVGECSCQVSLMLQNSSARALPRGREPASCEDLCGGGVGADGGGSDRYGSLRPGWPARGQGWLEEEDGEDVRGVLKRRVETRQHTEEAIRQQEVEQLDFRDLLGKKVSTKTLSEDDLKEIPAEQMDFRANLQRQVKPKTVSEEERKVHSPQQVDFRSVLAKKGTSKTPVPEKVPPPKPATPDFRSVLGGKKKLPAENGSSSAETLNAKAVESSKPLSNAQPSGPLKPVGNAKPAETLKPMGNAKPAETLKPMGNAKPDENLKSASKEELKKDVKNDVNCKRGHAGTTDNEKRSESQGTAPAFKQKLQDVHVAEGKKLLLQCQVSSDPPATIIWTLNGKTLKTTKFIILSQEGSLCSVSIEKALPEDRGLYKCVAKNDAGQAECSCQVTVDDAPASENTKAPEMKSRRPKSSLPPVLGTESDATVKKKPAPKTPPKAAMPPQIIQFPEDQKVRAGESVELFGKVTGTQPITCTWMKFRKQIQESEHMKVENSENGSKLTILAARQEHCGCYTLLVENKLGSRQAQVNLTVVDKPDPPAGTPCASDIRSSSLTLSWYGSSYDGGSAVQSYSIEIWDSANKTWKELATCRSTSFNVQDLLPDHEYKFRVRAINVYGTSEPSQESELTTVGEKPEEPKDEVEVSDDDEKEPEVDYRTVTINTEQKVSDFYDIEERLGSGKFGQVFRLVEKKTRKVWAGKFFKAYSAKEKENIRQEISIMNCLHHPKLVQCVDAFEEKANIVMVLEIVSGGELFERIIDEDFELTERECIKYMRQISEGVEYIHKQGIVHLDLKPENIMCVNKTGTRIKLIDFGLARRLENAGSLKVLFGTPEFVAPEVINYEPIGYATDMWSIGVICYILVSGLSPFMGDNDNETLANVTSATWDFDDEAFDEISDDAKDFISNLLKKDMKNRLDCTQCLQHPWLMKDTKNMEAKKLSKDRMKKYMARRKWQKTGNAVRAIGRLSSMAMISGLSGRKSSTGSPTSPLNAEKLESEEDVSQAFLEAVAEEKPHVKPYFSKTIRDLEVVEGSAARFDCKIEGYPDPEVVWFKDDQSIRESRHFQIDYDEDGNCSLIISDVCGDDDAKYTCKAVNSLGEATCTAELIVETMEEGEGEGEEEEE
Procedure: (§1) The below listed Test Methods A and B were run in accordance with the procedures described in Bishop, W.R., Petrin, J., Wang, L., Ramesh, U., and Doll, R.J. (1990) Biochemical Pharmacology, Vol. 40,2129-2135 and Hannun et al. J. Biol. Chem. (1985), Vol. 260, 10039-10043, which are herein incorporated by reference with the following modifications.
B. Myosin Light Chain Kinase ("MLCK") Protocol
Myosin light chain kinase (MLCK) assays were conducted in accordance with the methods of the Bishop et al. and Hannun et al. articles listed above in a reaction mixture containing 30 mM MLCK substrate peptide (Lys-Lys-Arg-Pro-Gln-Arg-Ala-Thr-Ser-Asn-Val-Phe-Ser-NH₂), 10 nM calmodulin, 25 mM [g-32P]ATP; 0.1 mM Ca⁺² acetate and 10 mM Mg⁺² acetate. Reactions were stopped after 10 minutes by addition of […] of 375 mM H₃PO₄ and spotting on phosphocellulose P81 paper.

[3] = biological target: partially purified rat brain PKC; assay: Mixed micellular protein kinase C (PKC) assay; type: biochemical; settings: for IC50: histone III-S substrate, 23°C, 15 min, 2% DMSO; for MLCK/PKC: selectivity, ratio of IC50 MLCK to IC50 PKC
Procedure: as §1
A. Protein Kinase C ("PKC") Protocol
Mixed micellular protein kinase C assays were conducted in accordance with the methods described in the two articles cited just above (namely, Bishop et al, and Hannun et al), in a reaction mixture (0.25 mL total volume) containing: 20 mM Tris-HCl (pH 7.5); […] histone III-S; 10 mM MgCl₂; 5 mM [g-32P]ATP (4 x 10^6 cpm/mmol); 200 mM CaCl₂; 32 mg/mL of phosphatidylserine; 1.6 mg/mL of 1-oleoyl-2-acetylglycerol and various concentrations of compounds of this invention added from a dimethyl-sulfoxide (DMSO) stock solution. The final concentration of DMSO in the reaction was 2% w/v. Reactions were started by addition of approximately […] of partially purified rat brain PKC and allowed to proceed at 23°C for 15 min. Reactions were terminated by collection of trichloroacetic acid-precipitated phosphorylated histone on GF/C filters using a Brandel Cell Harvester (Model No. M-24-R).

[4] = concentration of <10 mM, NHEK cells

SMILES	IC50 [2]	IC50 [3]	MLCK/PKC [3]	other results
CN[C@@H]1C[C@H]2O[C@@](C)([C@@H]1OC)n1c3ccccc3c3c4c(c5c6ccccc6n2c5c31)C(=O)NC4 [Staurosporine, staurosporine]				CE formation [1, 4]: potently inhibited; cytotoxicity [1, 4]: cytotoxicity was observed
COC1C([N+](C)(C)[O-])CC2OC1(C)n1c3ccccc3c3c4c(c5c6ccccc6n2c5c31)C(=O)NC4 (stereo not drawn) [Example 1, 4′ N-methyl-N-oxide of staurosporine]	34 nM	3.1 nM	11	
CCOC(=O)/C=C(C)/C=C/C=C(C)/C=C/c1c(C)cc(OC)c(C)c1C [etretinate, reference compound]				cornified envelope formation / keratinocyte cornification ([1]; human keratinocytes, no concentration given): inhibition of keratinocyte cornification
COC1C([N+](C)([O-])Cc2ccccc2)CC2OC1(C)n1c3ccccc3c3c4c(c5c6ccccc6n2c5c31)C(=O)NC4 (stereo not drawn) [Example 11, 4′-N-benzyl-N-oxide of staurosporine]	55 nM	33 nM	16.7	CE formation induced by high calcium-containing media ([1]; 500 (unit uncertain) concentration, NHEK cells, 48 hours): 71%; CE formation induced by high calcium-containing media ([1]; 1000 (unit uncertain) concentration, NHEK cells, 48 hours): 74%; TPA-induced CE formation ([1]; concentration of 250 mM, TPA-treated NHEK cells, 48 hours): antagonizes
